These results are taken from PubChem BioAssay AID179 (DTP/NCI, 2004).

SMILES strings stand for the structures. Active and inactive are the calls of the source.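 The calls were made as follows: active = compounds giving half or more protection of infected cells from virus-caused growth loss, again on retest; inactive = the rest.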 Some results are limits rather than exact numbers.

This experiment relates to CEM cells HIV-1 protection, formazan growth assay. Kind of experiment: NCI AIDS Antiviral Assay. Conditions: for IC50: measured here: growth of uninfected CEM cells. The method, boiled down:
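Protection of CEM cells against HIV-1 measured as cell growth via soluble formazan read-out, with five concentrations tested on both infected and uninfected cells; failure to protect may reflect toxicity.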

On to `CCOCc1cc(=O)c2cc3c(cc2o1)OC(C)(C)CC3`, for which the result was inactive. The EC50 is the concentration giving half of the maximal effect. As usually defined, the IC50 is the midpoint of a concentration-inhibition curve. Higher therefore signals weaker potency. In the case of `CC1=C(C(=O)Nc2cc(F)c(F)cc2F)C(c2cccc([N+](=O)[O-])c2)C(C(=O)Nc2ccccc2C(F)(F)F)=C(C)N1` (stereo not drawn), the EC50 is > 43.7 µM and the IC50 was > 43.7 µM.

With `COc1cc(C2C(C(=O)Nc3ccccc3C)=C(C)NC(C)=C2C(=O)Nc2ccccc2C)ccc1O`, the EC50 is > 363 µM and the IC50 is > 200 µM. In the same order, the values of `N#Cc1nc(C(CO)N(Cc2ccccc2)C(=O)O)oc1N` (stereo not drawn) are > 200 µM and > 200 µM. `CCOC(=O)/C(=C/c1ccc(OC)cc1)N(CC)CC`: the EC50 is > 468 µM and the half-inhibitory concentration (IC50) was 263 µM. As for `S=c1[nH]nc2nc(Nc3ccccc3)nc(Nc3ccccc3)n12`, the EC50 was > 21.4 µM and the concentration for half-maximal inhibition (IC50) was > 21.4 µM. In the case of `N[C@@H](Cc1ccc(O)c(O)c1)C(=O)O`, the EC50 is > 200 µM and the concentration for half-maximal inhibition (IC50) amounted to 51.3 µM. On to `CC1(C)CN(C(=O)OCc2ccccc2)[C@@H]2N1C(=O)[C@@]2(C)OCCCO[C@@]1(C)C(=O)N2[C@@H]1N(C(=O)OCc1ccccc1)CC2(C)C`, for which the EC50 was > 200 µM and the IC50 was found to be 26.9 µM.

On to `CC(C)(Oc1ccc(/C=C/C(=O)c2ccc(Cl)cc2)cc1)C(=O)Nc1c(Cl)cccc1Cl`, for which the EC50 was > 14.8 µM and the concentration for half-maximal inhibition (IC50) was > 14.8 µM. Take `CC(C)OC(=O)c1ccc(CCC2=CC(=O)C(Br)=CC2=O)cc1`: the EC50 was > 200 µM and the half-maximal inhibitory concentration (IC50) was 8.71 µM. With `COc1cc(C)c(Br)c2ccc(Br)c(O)c12`, the EC50 is > 200 µM and the IC50 was > 200 µM. `N=C(N)CCNC(=O)c1c[nH]c2nc(N)[nH]c(=O)c12`: the EC50 is > 347 µM and the IC50 was > 347 µM. With `C[C@]12CC(C#N)C(=O)C(O)=C1CC[C@@H]1C2CC[C@@]2(C)C1CC[C@@H]2O` (stereo partly drawn), the result was inactive. For the molecule `C=CCSc1n[nH]c(=S)c2nc[nH]c12`, the EC50 was > 200 µM and the 50% inhibitory concentration (IC50) was 129 µM. Consider `O=[N+]([O-])c1ccc(-n2nc3ccc4c(no[n+]4[O-])c3n2)cc1`, for which the EC50 was > 200 µM and the IC50 amounted to 57.5 µM. On to `CCOC(=O)c1cn2c3c(cccc3c1=O)CC2`, for which the EC50 was > 132 µM and the half-maximal inhibitory concentration (IC50) was > 132 µM. For the molecule `CC1CC[P+](c2ccccc2)(c2ccccc2)c2c1ccc1ccccc21` (stereo not drawn), the EC50 was > 17.8 µM and the half-maximal inhibitory concentration (IC50) came to 0.741 µM. For `Cc1ccc(C)c(COCCOCn2c(=O)[nH]c(=O)c3cc(Br)ccc32)c1`, in that order: > 200 µM and > 200 µM.

For `NC(N)=Nc1ccc(-c2ccc(N=C(N)N)cc2)cc1`, the EC50 was > 200 µM and the half-maximal inhibitory concentration (IC50) was 25.1 µM. For `CC(C)Oc1c(O)c2c3c(oc(=O)n3C=CC2c2ccccc2)c1OC(C)C` (stereo not drawn), the EC50 is > 200 µM and the IC50 came out at 21.9 µM. In the same order, the values of `O=C(OC(CC[P+](c1ccccc1)(c1ccccc1)c1ccccc1)(C(=O)c1ccccc1)c1ccccc1)c1ccccc1` (stereo not drawn) are > 200 µM and 1.07 µM. For `Cc1ccccc1S(=O)(=O)N1CCN(S(=O)(=O)c2ccccc2C)CC1`, in that order: > 200 µM and > 200 µM. In the same order, the values of `COc1cccc2c1CCc1sc(CN3CCN(C)CC3)nc1-2` are > 200 µM and 30.2 µM.

In the case of `CC1(C)C(=O)C(C)(C)C1O`, the EC50 is > 1780 µM and the 50% inhibitory concentration (IC50) is > 1780 µM.

Regarding `S=C(NNc1ccccc1Oc1ccccc1)NNc1ccccc1Oc1ccccc1`, the EC50 was > 100 µM and the 50% inhibitory concentration (IC50) is > 100 µM. As for `COc1ccc(NC2(Br)C(=O)NC(=O)NC2C(=O)O)cc1` (stereo not drawn), the EC50 was > 20 µM and the IC50 is > 20 µM. Take `Cc1ccc(S(=O)(=O)n2ccc(-c3ccc4ccn(S(=O)(=O)c5ccc(C)cc5)c4c3)c2)cc1`: the EC50 is > 200 µM and the IC50 stood at 87.1 µM. For `O=c1oc2ccccc2c(O)c1C(c1ccc(Cl)cc1)c1c(O)c2ccccc2oc1=O`, in that order: > 200 µM and 26.3 µM. For the molecule `Cc1ccc(Nc2nc(N)[nH]c(=O)c2N=O)cc1`, the EC50 was > 200 µM and the half-inhibitory concentration (IC50) came to 14.8 µM. For `CC(C)(C)OC(=O)N1NC(c2ccccc2)CC1c1ccccc1` (stereo not drawn), in that order: > 200 µM and 28.2 µM. On to `O=C(O)CN(c1ccccc1)S(=O)(=O)c1ccc([N+](=O)[O-])cc1`, for which the outcome was inactive. On to `N#C/C(=C\c1ccc(O)c(O)c1)C(=O)NCCN1CCN(C(=O)/C(C#N)=C/c2ccc(O)c(O)c2)CC1`, for which the EC50 is > 200 µM and the IC50 is 26.3 µM. For `CN(C)c1cccc2c1C(=O)C=CC21c2ccc(N(C)C)c3c(N(C)C)ccc(c23)C(c2ccccc2)C1c1ccccc1` (stereo not drawn), in that order: > 100 µM and 7.08 µM.

With `NCCCNC(=O)c1csc(NC(=O)c2csc(NC(=O)CCCN)n2)n1`, the EC50 was > 437 µM and the IC50 was found to be 174 µM. As for `CCOC(=O)C1=C(NC)OCC1=O`, the result was inactive. `O=[N+]([O-])c1ccccc1-c1nc2nc(N3CCOCC3)nc(N3CCOCC3)n2n1`: the EC50 is > 77.6 µM and the concentration for half-maximal inhibition (IC50) was 52.5 µM. In the same order, the values of `COC(=O)C1(O)CC(=O)CCC1c1ccc(OC)cc1` (stereo not drawn) are > 275 µM and > 275 µM. On to `CC(O)C1OC(n2cnc3c(=O)[nH]cnc32)C(O)C1O` (stereo not drawn), for which the EC50 was > 891 µM and the IC50 is > 891 µM. `c1cc[c]([Sn]([S]c2ccccn2)([c]2ccccc2)[c]2ccccc2)cc1`: the EC50 was > 2 µM and the IC50 amounted to 0.339 µM. For `CCn1c2ccc(C(=O)CCCN(C)C)cc2c2cc(C(=O)CCCN(C)C)ccc21`, in that order: > 380 µM and 0.123 µM. In the case of `COc1cc2cc(C(=O)N3CC(CCl)c4ccc(NO)cc43)[nH]c2c(OC)c1OC` (stereo not drawn), the EC50 was > 2 µM and the IC50 is 1.82 µM. For `CC1(CO)CCCC2(C)C1CCC1CC3C=CC12C1C(=O)OC(=O)C31` (stereo not drawn), in that order: > 200 µM and 83.2 µM. For `O=c1[nH]c(=O)n([C@@H]2C[C@H](CO)[C@H](O)C2)cc1/C=C/Br`, the EC50 is > 759 µM and the half-maximal inhibitory concentration (IC50) is 275 µM. In the case of `CN(C)c1ccc(C2N(C)CCN2C)cc1`, the EC50 was > 200 µM and the half-maximal inhibitory concentration (IC50) is > 200 µM.

Take `CC1[C@@H](OCc2ccccc2)COC(=O)N1Cc1ccccc1` (stereo partly drawn): the EC50 is > 200 µM and the 50% inhibitory concentration (IC50) was found to be 89.1 µM. In the case of `O=C(OCCc1ccccc1)c1cc2cc(O)c(O)cc2cn1`, the EC50 is > 8.32 µM and the concentration for half-maximal inhibition (IC50) was > 8.32 µM.

Take `Nc1sc(=S)nc2sc(Nc3ccccc3)nc12`: the EC50 was > 427 µM and the 50% inhibitory concentration (IC50) was > 427 µM.

Consider `O=C1c2c(c3c4ccccc4n(CC4CO4)c3c3[nH]c4ccccc4c23)C(=O)N1Cc1ccccc1` (stereo not drawn), for which the result was inactive.

For `CCCC/C=C(/CCCNCCc1ccccc1)[Si](C)(C)C`, the EC50 is > 81.3 µM and the concentration for half-maximal inhibition (IC50) was > 81.3 µM. For the molecule `COc1ccc(-c2c(-c3ccccc3)c(C)c3ccccn23)cc1`, the EC50 is > 200 µM and the IC50 was determined as 42.7 µM. In the same order, the values of `CCC1Oc2c(CC=C(C)C)c(O)c(C(O)C(C)CC)c3oc(=O)cc1c23` (stereo not drawn) are > 200 µM and 26.3 µM. As to `Cn1c(=O)[nH]c(N2CCCC2)c(C#N)c1=S`, the EC50 is > 200 µM and the IC50 is > 200 µM. For the molecule `NC(=S)N/N=C(/CC(=O)c1ccc([N+](=O)[O-])cc1)C(=O)Nc1ncc([N+](=O)[O-])s1`, the EC50 is > 83.2 µM and the IC50 was found to be 81.3 µM. In the same order, the values of `O=C1c2cc3c(cc2CC12Cc1cc4c(cc1C2=O)CCCC4)CCCC3` are > 200 µM and > 200 µM. Regarding `O=c1c2ccccc2c2nccc3c4ccccc4n1c32`, the EC50 is > 37.2 µM and the 50% inhibitory concentration (IC50) was > 37.2 µM. For `COc1ccc(C[C@H](N)C(=O)N2C[C@H](CO)C[C@H](n3cnc4c(N(C)C)ncnc43)C2)cc1`, the EC50 was > 138 µM and the IC50 was 81.3 µM. As to `CSc1nc2c(c(=O)[nH]1)N=C(c1ccccc1)CC(c1ccccc1)N2` (stereo not drawn), the outcome was inactive.

Regarding `COc1cccc(CCNc2c(C#N)c3nc4ccccc4n3c3ccccc23)c1`, the EC50 was > 200 µM and the IC50 is 0.295 µM.

In the case of `CCc1n[nH]c(=O)n1CCCCCCCCCCCCn1c(CC)n[nH]c1=O`, the EC50 is > 200 µM and the half-inhibitory concentration (IC50) was found to be 41.7 µM. For `Cc1ccc(N=Nc2c(C)nn(-c3ccccc3)c2-c2ccccc2)c(Br)c1`, the result was inactive.

For the molecule `CN(C)c1cc(CN(CCSS(=O)c2ccccc2[N+](=O)[O-])S(=O)c2ccccc2[N+](=O)[O-])nc(CN(CCSS(=O)c2ccccc2[N+](=O)[O-])S(=O)c2ccccc2[N+](=O)[O-])c1` (stereo not drawn), the EC50 was > 100 µM and the IC50 was > 100 µM. On to `CN(C)S(=O)(=O)c1cc(Cl)cc(Cc2cc(Cl)cc(S(=O)(=O)N(C)C)c2O)c1O`, for which the EC50 is > 74.1 µM and the IC50 was 4.37 µM.

Take `O=S1c2ccccc2Sc2ccccc21`: the 50% effective concentration (EC50) is 75.9 µM and the half-maximal inhibitory concentration (IC50) was 174 µM. As to `CCNC(=O)C(O)C1(O)CCC2[C@@H]3CCC4=CC(=O)C=C[C@]4(C)C3C(O)C[C@@]21C` (stereo partly drawn), the result was inactive. The same measure, in the same setting: in the case of `CC1(Cl)CCC2(CC(Br)=CC3OC32C)CC1Br` (stereo not drawn) it was “inactive”. Regarding `CC(=C(C#N)C#N)c1ccc(F)cc1`, the EC50 is > 138 µM and the half-maximal inhibitory concentration (IC50) is 112 µM. Turning to `O=c1oc2ccccc2c(O)c1C(c1cc(OCc2ccccc2)cc(OCc2ccccc2)c1)c1c(O)c2ccccc2oc1=O`, the EC50 was > 200 µM and the IC50 was determined as 9.55 µM.

For the molecule `Oc1ccc(Cl)cc1-c1[nH]c(=S)nc(-c2ccccc2)c1Cl`, the EC50 is > 200 µM and the half-inhibitory concentration (IC50) is > 200 µM. In the case of `Nc1c(C(=O)O)[nH]c(=O)[nH]c1=S`, the EC50 was > 200 µM and the half-inhibitory concentration (IC50) amounted to 95.5 µM. `Cc1cc(=O)[nH]c(NNC(C#N)c2ccco2)n1` (stereo not drawn): the EC50 was > 380 µM and the IC50 is > 380 µM.

Regarding `COc1cc(C(c2c(O)c3ccccc3oc2=O)N2CCCC2)cc(OC)c1OC` (stereo not drawn), the EC50 is > 200 µM and the half-inhibitory concentration (IC50) amounted to 107 µM.
